From publication PMC7251097, “Aspartate/asparagine-β-hydroxylase: a high-throughput mass spectrometric assay for discovery of small molecule inhibitors” (Scientific Reports, 2020)
Where “and” joins values, the source holds several entries; their conditions need not be identical. Equal values may be shown once. Where a name gives a salt, the structure may show the parent alone. Read-outs that look alike come from different tables or passages of the source.

Molecular target: T1, His6-AspH315–758 (human aspartate/asparagine-β-hydroxylase, AspH) (Homo sapiens, UniProt Q12797)
T1 construct: N-Terminally His6-tagged human AspH315–758 (His6-AspH315–758) was produced in E. coli BL21 (DE3) cells; made in house; host or cells: E. coli BL21 (DE3), pET-28a(+) vector
T1 sequence (Q12797 315-758): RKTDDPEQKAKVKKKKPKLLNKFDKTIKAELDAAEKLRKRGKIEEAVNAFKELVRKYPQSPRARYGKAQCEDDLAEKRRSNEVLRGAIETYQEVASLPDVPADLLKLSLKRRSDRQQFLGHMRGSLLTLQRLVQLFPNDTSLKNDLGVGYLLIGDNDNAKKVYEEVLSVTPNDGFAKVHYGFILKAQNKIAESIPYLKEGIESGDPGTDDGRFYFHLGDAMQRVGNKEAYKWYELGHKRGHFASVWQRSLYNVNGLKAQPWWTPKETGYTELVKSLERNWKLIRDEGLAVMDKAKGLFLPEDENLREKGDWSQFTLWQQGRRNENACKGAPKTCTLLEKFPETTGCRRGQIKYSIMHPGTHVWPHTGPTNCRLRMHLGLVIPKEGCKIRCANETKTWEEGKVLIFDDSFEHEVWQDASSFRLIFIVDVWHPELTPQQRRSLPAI
Assay: SPE-MS AspH inhibition assay (LOPAC screen at fixed 20 μM and IC50 dose-response), hydroxylation of cyclic peptide hFX-CP101–119
Format: biochemical

[1] = LOPAC compound at 20uM, conversion of substrate peptide
[2] = LOPAC Plate 4, compound at 20 uM, substrate conversion
[3] = LOPAC compound at 20uM, plate 2, conversion of substrate peptide
[4] = LOPAC compound at 20uM, plate 2, normalised to DMSO and 2,4-PDCA controls

Compound: O=C1N(c2ccccc2)c2ccccc2C1(Cc1ccncc1)Cc1ccncc1 [Linopirdine]
- Plate 3 (% conversion) [1]: 41.24%

Compound: NS(=O)(=O)Cc1noc2ccccc12 [Zonisamide sodium]
- % conversion [2]: 32.12%

Compound: CN1C2CCC1CC(OC(=O)c1c[nH]c3ccccc13)C2.Cl (centres unmarked)
- % conversion: 31.98%

Compound: COCc1nc2c([nH]1)c(=O)n(C)c(=O)n2CC(C)C
- Plate 3 (% conversion) [1]: 35.26%

Compound: COc1ccccc1N1CCN(CCN(C(=O)C2CCCCC2)c2ccccn2)CC1.O=C(O)/C=C\C(=O)O [WAY-100635 maleate]
- % conversion: 42.39%
- % inhibition (20 µM): -17.34%

Compound: NC(CO)(CO)CO.O=C(c1ccccc1)c1ccc2n1CCC2C(=O)O (centres unmarked) [Ketorolac tris salt]
- Plate 3 (% conversion) [1]: 36.01%

Compound: CCN(CC)CCCC(C)Nc1ccnc2cc(Cl)ccc12 (centres unmarked) [Chloroquine diphosphate]
- Plate 1 (% conversion): 38.59%
- Plate 1 (% inhibition): -8.09%

Compound: CCCN(CCC)C(=O)C(CCC(=O)O)NC(=O)c1ccccc1 (centres unmarked) [Proglumide]
- Plate 3 (% conversion) [1]: 27.88%

Compound: O=C1Cc2cc(CCN3CCN(c4nsc5ccccc45)CC3)c(Cl)cc2N1 [Ziprasidone hydrochloride monohydrate]
- % conversion [2]: 26.15%

Compound: CN(CCCOc1ccc(Cc2ccccc2)cc1)CCC(=O)O.Cl [SC-57461A]
- % conversion: 41.07%
- Plate 5 (% conversion): 38.96%
- Plate 5 (% inhibition): -7.77%
- % inhibition (20 µM): -13.47%

Compound: (±)-Butaclamol hydrochloride
- Plate 1 (% inhibition) (LOPAC compound at fixed 20 uM, plate 1, normalised to DMSO and 2,4-PDCA controls): -27.23%
- Plate 1 (% conversion) (LOPAC compound at fixed 20 uM, substrate conversion, plate 1): 45.02%

Compound: CCN1C[C@]2(COC)[C@H](O)C[C@H](OC)[C@@]34[C@@H]5C[C@@]6(O)[C@H](OC(=O)c7ccccc7)[C@@H]5[C@@](OC(C)=O)([C@@H]([C@H](OC)[C@H]23)[C@@H]14)[C@@H](O)[C@@H]6OC [Aconitine]
- Plate 1 (% conversion): 40.69%
- Plate 1 (% inhibition): -14.35%

Compound: CC[C@H]1OC(=O)[C@H](C)[C@@H](O[C@H]2C[C@@](C)(OC)[C@@H](O)[C@H](C)O2)[C@H](C)[C@@H](O[C@@H]2O[C@H](C)C[C@H](N(C)C)[C@H]2O)[C@](C)(O)C[C@@H](C)CN(C)[C@H](C)[C@@H](O)[C@]1(C)O [Azithromycin]
- Plate 5 (% inhibition) (plate 5 (Pfitzer), test compounds at fixed 20 μM): -3.13%
- Plate 5 (% conversion) (plate 5 (Pfitzer), test compounds at fixed 20 μM, mean conversion DMSO 32.88): 37.38%

Compound: NC(N)=Nc1ccc2[nH]c3c(c2c1)C[C@@]1(O)[C@H]2Cc4ccc(O)c5c4[C@@]1(CCN2CC1CC1)[C@H]3O5.O=C(O)C(F)(F)F.O=C(O)C(F)(F)F [GNTI, Guanidinyl-naltrindole di-trifluoroacetate, reference compound]
- Plate 2 (% conversion): 1.92%
- Inhibition at 20 µM [%] (20 µM): 100% and 101.7%
- IC50 [μM] (pH 7.5): inactive

Compound: Nc1c(S(=O)(=O)O)cc(Nc2ccc(Nc3nc(Cl)nc(Nc4cccc(S(=O)(=O)O)c4)n3)c(S(=O)(=O)O)c2)c2c1C(=O)c1ccccc1C2=O [Reactive Blue 2, reference compound]
- % conversion: 3.94%
- inhibition at 20 µM: 95.3%
- inhibition at 20 µM (read-out: Inhibition at 20 µM [%]): 95.3%

Compound: CCOC(=O)C1=C[C@]2(CC)CCCN3CCc4c(n1c1ccccc41)[C@@H]32 [Vinpocetine]
- % conversion [2]: 29.87%

Compound: C[C@H]1O[C@@H](n2cc(F)c(=O)[nH]c2=O)[C@H](O)[C@@H]1O [5-fluoro-5-deoxyuridine]
- Plate 2 (% conversion) [3]: 36.33%
- Plate 2 (% inhibition) [4]: -1.12%

Compound: Nc1ccc(CCN2CCN(c3cccc(C(F)(F)F)c3)CC2)cc1 [PAPP]
- % conversion: 42.06%
- % inhibition (20 µM): -16.38%

Compound: CC(=O)Oc1cc(C(C)C)c(OCCN(C)C)cc1C [Moxisylyte hydrochloride]
- Plate 3 (% conversion) [1]: 37.49%

Compound: CN(C)CCCN1c2ccccc2Sc2ccccc21 [Promazine hydrochloride]
- % conversion [2]: 39.62%
- inhibition at 20 µM (LOPAC Plate 4, compound at 20 uM, read-out: % inhibition): -9.23%

Compound: CC[n+]1c(/C=C/C=C2/N(C)c3ccccc3C2(C)C)sc2ccccc21.[I-] [AC-93253 iodide]
- Plate 2 (% conversion): 41.62%
- Plate 2 (% inhibition) [4]: -16.93%

Compound: (+)-Cyclazocine
- Plate 2 (% conversion): 35.78%
- Plate 2 (% inhibition) (20 µM): 0.54%

Compound: O=C(O)c1cc(=O)c2c(Cl)cc(Cl)cc2[nH]1 [5,7-Dichlorokynurenic acid]
- Plate 2 (% conversion) [3]: 35.63%
- Plate 2 (% inhibition) [4]: 0.98%

Compound: O=c1[nH]cc(F)c(=O)[nH]1 [5-Fluorouracil]
- Plate 2 (% conversion) [3]: 36.11%
- inhibition at 20 µM (LOPAC compound at 20uM, plate 2, normalised to DMSO and 2,4-PDCA controls, read-out: Plate 2 (% inhibition)): -0.46%

Compound: CC[N+](CC)(CC)CC [Tetraethylammonium chloride]
- % conversion: 26.96%
